From patent US11523980B2, “Use of a peptide for the treatment of epiderm” (Sederma, priority 2018, dated 2022)
Marks after values point to notes of the source that are not given here. Residues, ends and D or L forms follow the SMILES beside them. *: point of attachment. Palmitoyl = CCCCCCCCCCCCCCCC(=O)*

Key:
[1] = test system: normal human keratinocytes (NHK); experiment: LC-MS/MS study of proteins in NHK culture (7 days); format: cell-based; details: 4 ppm
Excerpt: The same culture protocol as for the DNA-Array (1.1/above) was used but with a longer culture time (7 days), the protein productions taking longer to be detected with this LC-MS/MS method. The NHK culture medium (n=3) was changed every 3 days. At the end of this contact, the cells were lysed so as to extract the proteins and to analyze them in the form of crushed material by a method associating the action of a protease on the crushed material, the separation of the fragments by coupled liquid chromatography to mass spectrometry, then the identification and concentration of pre-existing proteins according to the nature and quantity of fragments obtained (LC-MS/MS). To conduct LC-MS/MS analysis on equivalent amounts of protein, the protein concentration was measured on the crushed material.
(§1) A study of the variances and a Student's t test were carried out in order to judge the significance of the results.

[2] = test system: α-crystallin protein in reconstructed skin epidermis; experiment: α-crystallin immunohistology on reconstructed skins; format: cell-based, human; details: for α-cristallin % of variation/control: reconstructed skin epidermis, 24 hours then following 18 days
Method: Normal human fibroblasts were seeded in a matrix. A few days after keratinocytes were deposited on this equivalent dermis to form a uniform layer of cells. At this stage the whole was passed to an air-liquid interface (emersion) so as to form a pluristratified epidermis. After 21 days (approximately), a mature skin equivalent was obtained (with an epidermis comprising the stratum corneum).
On the eve of the emergence phase, the layer of confluent human keratinocytes of these skins received the peptide according to the invention for 24 hours and then for the following 18 days (period of formation of the epidermis). Cryo-sections (7 μm) were made and the α-crystallin was labeled with fluorescent antibodies (immunohistology). The fluorescence was analyzed in photos, an equivalent surface was analyzed for all the photographs (n=51-59). Student's t test was performed.

desmoglein = experiment: Desmoglein fluorescence immunohistology on abdominal skin explant; format: cell-based, human; details: cream containing 6 ppm applied daily, 6 days, vs placebo cream
Excerpt: (§2) Desmoglein was searched on sections of abdominal skin (person) who had received a cream containing 6 ppm of the peptide according to the invention or the placebo cream. After 6 days (cream applied daily), the skins were frozen and sectioned to look for desmoglein using antibodies against this protein (fluorescence immunohistology). Photos were captured using a fluorescence microscope and the images analyzed using suitable software. The results were compared to those of the placebo cream.

[3] = test system: normal human keratinocytes (NHK); experiment: DNA-Array, mRNA expression in confluent keratinocytes; format: cell-based; details: 4 ppm
Method: The following in vitro tests were performed on epidermal cells: normal human keratinocytes (NHK) or on skin explant or on reconstructed skin. The peptide according to the invention was tested, in solution in an inert solvent (ethanol), at recommended concentrations of use on the skin. The peptide according to the invention was contacted for 6 or 24 h with confluent KHN (n=3). Then the KHN mats were rinsed and the cells were crushed to extract their mRNAs. These mRNAs are then converted into small DNA sequences which are analyzed after deposition on DNA chips and amplification by a method similar to qRT-PCR (Real-Time Quantitative Reverse Transcription Polymerase Chain Reaction). The mRNA variations due to the peptide are compared to the control case (peptide solvent).

confluent keratinocytes = experiment: Intracellular calcium mobilization in confluent keratinocytes (fluorescent calcium probe); format: cell-based, human; details: 6 or 15 ppm; visible after about 30 minutes of contact
Method: Confluent keratinocytes were loaded with a specific calcium probe. This molecule becomes very fluorescent in the presence of intracellular free calcium. The appearance of fluorescence under the microscope was monitored. The cells, once loaded, were rinsed and then received the peptide according to the invention at 6 or 15 ppm or a positive control (bradykinin).
A study of the variances and a t test of Student were carried out in order to judge the significance of the results (n=3 for each condition).

transglutaminases = experiment: Transglutaminase activity (fluorescent dansylcadaverine) in NHK; format: cell-based, human; details: contact up to 21 days
Method: (§3) Finally, the influence of the peptide according to the invention on the activity of transglutaminases and on the expression of the transglutaminase-5 gene was evaluated.
For this, confluent NHKs were brought into contact with the peptide according to the invention up to 21 days. Transglutaminase activity was assessed using a protocol using fluorescent dansylcadaverine which is bound to Stratum corneum proteins by these enzymes. An analysis of the fluorescence was performed, and the results compared to the solvent control.
(§4) A quantification of the number of cells was carried out in parallel for the 4 tests described in this part, so as to reduce the results to the number of cells.

NHKs exposed to UVB = experiment: Secretome of pro-inflammatory mediators by NHKs exposed to UVB (ELISA); format: cell-based, human; details: NHK + UVB
Method: To test the active, keratinocytes were cultured under mild stress conditions (application of UVB radiation) so as to mimic experimental micro-inflammation of the skin. In this situation a significant decrease in their secretome of inflammation mediators will be interpreted in the sense of a repairing and protective action of the skin.
NHKs in culture and at confluence were brought into contact with the peptide according to the invention (or its solvent) for 24 hours in a medium allowing their survival, then the mats were irradiated with UVB in a physiological buffer and placed back into contact with products to be tested for 24 hours. At the end of this incubation, the culture media were assayed by ELISA in order to know the quantities of pro-inflammatory mediators produced by these cells in response to irradiation. The results were compared with solvent control +/−irradiation. A cellular respiration test was conducted to evaluate the number of cells and standardize the results.
as §1

[4] = test system: normal human keratinocytes (NHK); experiment: Immunocytochemistry of differentiation markers and ceramides in NHK; format: cell-based; details: 2 ppm, 7 days
Method: Confluent NHKs (n=3) were cultured as previously for 7 days in the presence or absence (control) of the peptide according to the invention, then immunocytochemistry markings were carried out using antibodies directed against proteins characteristic of the maturation of the epidermis: involucrin, loricrin and filaggrin, or of moisturizing: filaggrin, as well as ceramides (structuring elements of the Stratum corneum).
as §4

KLK5 (kallikrein 5) = experiment: KLK5 fluorescence immunohistology on abdominal skin explant; format: cell-based, human; details: cream containing 6 ppm applied daily, 6 days, vs placebo cream
Excerpt: as §2
The same sections as those used for desmoglein, as well as the same method (fluorescence immunohistology) were used to analyze and quantify the effect of the peptide according to the invention on this desquamation marker.

[5] = test system: hyaluronic acid secretion in NHK; experiment: Hyaluronic acid secretion by keratinocytes (ELISA); format: cell-based, human; details: for Hyaluronic acid % of variatio/control: ELISA
Method: The moisturizing aspect was evaluated by the assay of hyaluronic acid produced by keratinocytes by an ELISA method.
as §4

transglutaminase-5 gene = experiment: Transglutaminase-5 gene expression (qRT-PCR) in KHN; format: cell-based, human; details: 72 hours of contact
Method: as §3
With regard to transglutaminase-5, a qRT-PCR was performed after 72 hours of contact between the KHN and the peptide according to the invention.
as §4

filaggrin gene = experiment: qRT-PCR analysis of filaggrin gene expression; format: cell-based, human
Excerpt: The genes of loricrin, filaggrin and filaggrin 2, three proteins involved in the building of the corneocyte or the moisturisation of the Stratum corneum, were statistically better expressed than in the solvent control (p<0.01). […] 3.66 times compared to control (p<0.01).

Lnc-RNA ANCR = Lnc-RNA ANCR expression (qRT-PCR) in confluent keratinocytes; format: cell-based, human; details: 24 h
Method: In this test confluent keratinocytes were contacted with the peptide according to the invention for 24 hours, then the cells were rinsed, ground and their RNAs were extracted, converted into DNA and then analyzed by qRT-PCR.
A study of the variances and a Student's t-test were carried out in order to judge the significance of the results (n=4 for each condition).

With `CCCCCCCCCCCCCCCC(=O)NC(CCCCN)C(=O)NC(C(=O)NC(Cc1ccccc1)C(=O)NC(CCCCN)C(=O)O)C(C)O` (stereo not shown) [peptide according to the invention, palmitoyl-lysyl-threonyl-phenylalanyl-lysine] (Palmitoyl-KTFK-OH; configuration not given here) the Toxic effects [1] was “No toxic effects were noted”, the “Variation with respect to the control of protein Filaggrin” value ([1]; LC-MS/MS) was “×4.16” and the “Variation with respect to the control of protein Keratin 10” value ([1]; LC-MS/MS) was “×1.46”. The “Variation with respect to the control of protein NICE-1” value ([1]; LC-MS/MS) was “×3.42”, the “Variation with respect to the control of protein SPRR1A” value ([1]; LC-MS/MS) was “×1.55” and the “Variation with respect to the control of protein α-cristallin” value ([1]; LC-MS/MS) was “×2.19”. For the same compound, the Toxic effects ([2]; 4 and 6 ppm, reconstructed skin) was “No toxic effects were noted”, the “α-cristallin % of variation/control” value ([2]; 4 ppm) was “+61%; p < 0.01” and the “α-cristallin % of variation/control” value ([2]; 6 ppm) was “+164%; p < 0.01”. For the same compound, the “Desmogleine % of variation/control” value (desmoglein) was “+24%; p < 0.01”, the Toxic effects ([3]; 6 or 24 h contact) was “No toxic effects were noted” and the “Increase in production of mRNA coding for TRPC6 compared with the solvent control” value ([3]; 6 h) was 6.05 ×. For the same compound, the “Variation with respect to the control of expression of gene coding for Filaggrin” value ([3]; 6 hours contact) was “×2.32 *”, the “Variation with respect to the control of expression of gene coding for Filaggrin 2” value ([3]; 6 hours contact) was “×2.42 *” and the “Variation with respect to the control of expression of gene coding for Loricrin” value ([3]; 6 hours contact) was “×2.97 *”. For the same compound, the “Variation with respect to the control of expression of gene coding for LCE2D” value ([3]; 24 hours contact) was “×1.84 **”, the “Variation with respect to the control of expression of gene coding for LCE3B” value ([3]; 24 hours contact) was “×2.13 **” and the “Variation with respect to the control of expression of gene coding for LCE3C” value ([3]; 24 hours contact) was “×3.25 **”. The “Variation with respect to the control of expression of gene coding for LCE3D” value ([3]; 24 hours contact) was “×2.06 **”, the “Variation with respect to the control of expression of gene coding for LCE3E” value ([3]; 24 hours contact) was “×2.33 **” and the “Variation with respect to the control of expression of gene coding for SPRR2B” value ([3]; 24 hours contact) was “×2.13 **”. The “Variation with respect to the control of expression of gene coding for SPRR2C” value ([3]; 24 hours contact) was “×1.58 **”, the “Intracellular calcium mobilization (visual, fluorescence microscope)” value (confluent keratinocytes) was “induces an intracellular calcium mobilization” and the “Transglutaminase Intra-KHN activity % of variation/control” value (transglutaminases; 4 ppm) was “+45%; p < 0.01”. For the same compound, the “Transglutaminase Intra-KHN activity % of variation/control” value (transglutaminases; 6 ppm) was “+107%; p < 0.01”, the “IL-1α % of variation/control” value (NHKs exposed to UVB; 2 ppm) was −15% and the “IL-1β % of variation/control” value (NHKs exposed to UVB; 2 ppm) was −14%. For the same compound, the “IL-6 % of variation/control” value (NHKs exposed to UVB; 2 ppm) was −12%, the “PGE2 % of variation/control” value (NHKs exposed to UVB; 2 ppm) was −31% and the “TNF-α % of variation/control” value (NHKs exposed to UVB; 2 ppm) was −10%. The “IL-1α % of variation/control” value (NHKs exposed to UVB; 4 ppm) was −38%, the “IL-1β % of variation/control” value (NHKs exposed to UVB; 4 ppm) was −43% and the “IL-6 % of variation/control” value (NHKs exposed to UVB; 4 ppm) was −70%. The “PGE2 % of variation/control” value (NHKs exposed to UVB; 4 ppm) was −59%, the “TNF-α % of variation/control” value (NHKs exposed to UVB; 4 ppm) was −56% and the “IL-1α % of variation/control” value (NHKs exposed to UVB; 6 ppm) was −46%. The “IL-1β % of variation/control” value (NHKs exposed to UVB; 6 ppm) was −54%, the “IL-6 % of variation/control” value (NHKs exposed to UVB; 6 ppm) was −84% and the “PGE2 % of variation/control” value (NHKs exposed to UVB; 6 ppm) was −74%. For the same compound, the “TNF-α % of variation/control” value (NHKs exposed to UVB; 6 ppm) was −71%, the Toxic effects [4] was “No toxic effects were noted” and the “Ceramides % of variation/control” value ([4]; immunofluorescence) was “+334%;”. The “Filaggrin % of variation/control” value ([4]; immunofluorescence) was “+554%;”, the “Involucrin % of variation/control” value ([4]; immunofluorescence) was “+60%;” and the “Loricrin % of variation/control” value ([4]; immunofluorescence) was “+261%;”. For the same compound, the “KLK5 % of variation/control” value (KLK5 (kallikrein 5)) was “+258%; p < 0.01”, the Toxic effects ([5]; 4 and 6 ppm) was “No toxic effects were noted” and the “Hyaluronic acid % of variatio/control” value ([5]; 4 ppm) was “+40%; p < 0.01”. For the same compound, the “Hyaluronic acid % of variatio/control” value ([5]; 6 ppm) was “+91%; p < 0.01”, the “Transglutaminase-5 Gene expression % of variation/control” value (transglutaminase-5 gene; 4 ppm) was “+133%; p < 0.01” and the “Transglutaminase-5 Gene expression % of variation/control” value (transglutaminase-5 gene; 6 ppm) was “+798%; p < 0.01”. For the same compound, the “Increase of filaggrin gene expression compared to control (qRT-PCR)” value (filaggrin gene; 4 ppm) was 2.87 times, the “Increase of filaggrin gene expression compared to control (qRT-PCR)” value (filaggrin gene; 6 ppm) was 3.66 times and the “ANCR ratio % of variation/control” value (Lnc-RNA ANCR; 4 ppm) was −27%; p < 0.05. For the same compound, the “ANCR ratio % of variation/control” value (Lnc-RNA ANCR; 6 ppm) was −34%; p < 0.01.
